Reference: patent publication US20160152942A1, “METHOD FOR ISOLATING HIGHLY FURFURAL RESISTANT STRAIN AND STRAIN ISOLATED BY THE METHOD” (priority 2014, published 2016)
Where two headings read alike, the source gives them in different places.

Legend:
Format in all cases: cell-based
[1] = test system: Corynebacterium glutamicum; test: Inhibition of growth by furfural, IC50 (Test Example 2); details: against Corynebacterium glutamicum; read-out: half maximal inhibitory concentration (IC50) of furfural
[2] = test system: Corynebacterium glutamicum (Comparative Example 2); test: Resistance to furfural, growth by turbidity (Test Example 1); details: 30 mM furfural, LB with 1% glucose, 30 °C, 24 h
Method: (§1) The degrees of growth of Enterobacter cloacae strain GGT036 [Accession No. KCTC 12672BP], E. coli (Comparative Example 1), and Corynebacterium glutamicum (Comparative Example 2) in media containing 30 mM furfural were compared by turbidity measurements to identify the resistance of Enterobacter cloacae strain GGT036 to furfural.
(§2) The media used were LB media supplemented with 1% glucose. An observation was made to determine the dependence of the growth of the strains in the media containing 30 mM furfural (FIG. 2B) and the furfural-free media (FIG. 2A) on the presence or absence of furfural.
(§3) After 7 mL of each medium was added to a glass tube (24 mm), the colonies obtained in Example 1 were inoculated into the medium, followed by culture at 30° C. for 24 h.

[3] = test system: E. coli (Comparative Example 1); test: as above; details: 30 mM furfural, LB with 1% glucose, 30 °C, 24 h
Method: as §1, §2, §3

[4] = test system: Enterobacter cloacae strain GGT036 [Accession No. KCTC 12672BP]; test: as above; details: 30 mM furfural, LB with 1% glucose, 30 °C, 24 h
Method: as §1, §2, §3

[5] = test system: Enterobacter cloacae strain GGT036 [Accession No. KCTC 12672BP]; test: Inhibition of growth by furfural (Test Example 2); details: for IC50: LB medium with 1% glucose, 30 °C
Method: (§4) The term “IC50” refers to the concentration of the toxic substance required to inhibit the maximum growth of the microorganism by 50%.
LB media were supplemented with 1% glucose as a carbon source to prepare culture media. To the culture media was added furfural at different concentrations of 20 mM, 40 mM, and 60 mM. The growth rates of the strain in the furfural-containing media were compared with the growth rate of the strain in the furfural-free medium.
After 50 mL of each culture medium was added to an Erlenmeyer flask, Enterobacter cloacae strain GGT036 [Accession No. KCTC 12672BP] was inoculated at an initial OD600 of 1, followed by culture at 30 ° C.
(§5) The half maximal inhibitory concentration (IC50) values of furfural were calculated. As a result, the IC50 value against Enterobacter cloacae strain GGT036 [Accession No. KCTC 12672BP]

E. coli = test: Inhibition of growth by furfural, IC50 (Test Example 2); details: Escherichia coli; against E. coli; read-out: half maximal inhibitory concentration (IC50) of furfural
Method: as §4, §5

In the case of `O=Cc1ccco1` [furfural], the IC50 [1] is reported as 10 mM, the “growth of strain in furfural-containing medium” value (“growth of strain” below) [2] is reported as “not grown” and the “growth of strain” value [3] is reported as “not grown”. The “growth of strain” value [4] was “cell growth was observed”, the “OD value of culture” value ([5]; 60 mM furfural, after 30 h of culturing, initial OD600 of 1) was ≤ 2 and the IC50 ([5]; Enterobacter cloacae, read-out: half maximal inhibitory concentration (IC50) of furfural, against Enterobacter cloacae strain GGT036) was 45 to 55 mM. The “growth rate of strain” value ([5]; furfural concentration increasing from 0 mM to 40 mM) was “slightly retarded”, the IC50 ([5]; read-out: half maximal inhibitory concentration (IC50) of furfural, against Enterobacter cloacae strain GGT036) was 47.7 mM and the IC50 (E. coli) was 24.9 mM.
